Columns and labels:
Type in all cases: cell-based
[1] = test system: H3122 cell line (NSCLC, EML4-ALK fusion); experiment: Ceritinib sensitivity (IC50) of parental H3122 cell line; settings: Homo sapiens, NCI-H3122; ALK-positive H3122 parental cell line
Experimental: (§1) In the particular study reported here, resistance to the small molecule ALK inhibitor Ceritinib was studied. The patient-derived cell line H3122 is a NSCLC line with an EML4-ALK fusion, and it is sensitive to Ceritinib. To simulate the clinical development of therapeutic resistance following initial treatment, this cell line was cultured over a period of 6 months with low but increasing doses of Ceritinib. […] These clones were expanded and comprise the cell lines LDKR1-4.
(§2) FIG. 5 is a schematic diagram showing the development of the cell lines. The ALK-positive H3122 cell line, which is sensitive to the ALK inhibitor Ceritinib (ICso=53 nM), was treated with escalating doses of Ceritinib over a period 6 months. Resistant clones LDKR1-4 were obtained with ICso values in a range from 1494 nM to 3897 nM.

[2] = test system: LDKR1-4 cell lines (Ceritinib-resistant clones of H3122); experiment: Ceritinib sensitivity (IC50) of resistant clones LDKR1-4
Experimental: as §1, §2

[3] = biological target: T1, ALK (Homo sapiens, UniProt Q9UM73); experiment: Phosphoproteomic analysis of ALK phosphorylation after Ceritinib treatment, parental H3122; settings: 300 nM Ceritinib, 24 hours
T1 sequence (Q9UM73 with tags, fused parts or gaps): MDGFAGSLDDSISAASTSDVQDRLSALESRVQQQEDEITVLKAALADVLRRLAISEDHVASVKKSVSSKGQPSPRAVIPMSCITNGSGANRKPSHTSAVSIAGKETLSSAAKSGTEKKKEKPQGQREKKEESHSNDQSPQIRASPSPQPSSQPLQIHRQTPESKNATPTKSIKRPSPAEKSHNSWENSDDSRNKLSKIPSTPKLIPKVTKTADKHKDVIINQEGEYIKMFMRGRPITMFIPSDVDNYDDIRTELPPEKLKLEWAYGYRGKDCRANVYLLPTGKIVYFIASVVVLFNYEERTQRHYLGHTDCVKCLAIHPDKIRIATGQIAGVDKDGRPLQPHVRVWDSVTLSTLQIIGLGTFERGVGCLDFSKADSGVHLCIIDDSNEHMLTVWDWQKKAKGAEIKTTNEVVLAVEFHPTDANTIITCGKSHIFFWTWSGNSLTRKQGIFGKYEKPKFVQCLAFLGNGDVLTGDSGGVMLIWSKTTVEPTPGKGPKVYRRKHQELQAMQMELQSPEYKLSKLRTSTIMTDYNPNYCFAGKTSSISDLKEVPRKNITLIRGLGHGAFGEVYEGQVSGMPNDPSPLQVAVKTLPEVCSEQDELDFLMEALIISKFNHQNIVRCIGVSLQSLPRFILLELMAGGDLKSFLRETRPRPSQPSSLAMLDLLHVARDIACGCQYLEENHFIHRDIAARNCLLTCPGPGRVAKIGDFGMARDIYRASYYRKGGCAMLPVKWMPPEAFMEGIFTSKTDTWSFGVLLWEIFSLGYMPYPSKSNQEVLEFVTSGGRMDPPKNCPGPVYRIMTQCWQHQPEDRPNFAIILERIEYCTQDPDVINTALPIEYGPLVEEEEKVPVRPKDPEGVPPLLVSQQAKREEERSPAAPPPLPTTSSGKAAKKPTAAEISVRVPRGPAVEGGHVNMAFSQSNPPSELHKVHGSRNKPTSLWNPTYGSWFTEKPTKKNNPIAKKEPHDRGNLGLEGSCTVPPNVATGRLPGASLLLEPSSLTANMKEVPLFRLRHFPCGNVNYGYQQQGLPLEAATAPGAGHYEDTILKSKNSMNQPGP
Experimental: (§3) The H3122 parental and LDKR1-4 cell lines were each grown in culture with or without the addition of Ceritinib for 24 hours, and harvested cells were subsequently processed for both proteomic and phosphoproteomic analyses. Specifically, each of the cell lines was cultured in RPMI-1640 media supplemented with 10% FBS, 100 units/mL penicillin, and 100 μg/mL streptomycin. Cells were treated for 24 hours with 300 nM Ceritinib (also known as LDK378). Cells were collected, and the cell pellets were resuspended in mammalian lysis buffer and lysed by passage through a 21 gauge needle. The lysate was centrifuged at 15,000×g for 5 minutes at 4° C., and insoluble debris was discarded.
(§4) The lysates were then prepared for mass spectrometry analysis. Samples were reduced with DTT, alkylated with iodoacetamide, and precipitated with methanol/chloroform. Protein was digested overnight at room temperature with endoproteinase Lys-C(obtained from Wako Chemicals, Richmond, VA) followed by digestion with sequencing-grade trypsin (obtained from Promega Corp., Madison, WI) for 6 hours at 37° C. Samples were quenched with 1% TFA and desalted using Sep-Pak C18 (SPE) cartridges (obtained from Waters Corp., Milford, MA). The peptide concentration of each sample was determined using a BCA assay. […]

[4] = biological target: T1, ALK; experiment: Phosphoproteomic analysis of ALK activity after Ceritinib treatment, resistant cell lines; settings: LDKR1-4, 300 nM Ceritinib, 24 hours
Experimental: as §3, §4

IC50 ([2]; Homo sapiens, NCI-H3122, resistant clones LDKR1-4, obtained after 6 months of escalating doses of Ceritinib): 1490 to 3900 nM
ALK Thr 1506/Tyr 1507/Ser 1509 phosphorylation, ratio to parental cell line with no drug [3]: decreasing fourfold upon drug treatment
ALK Tyr 1078 phosphorylation, ratio to parental cell line with no drug [3]: decreased upon drug treatment
SMILES: Cc1cc(Nc2ncc(Cl)c(Nc3ccccc3S(=O)(=O)C(C)C)n2)c(OC(C)C)cc1C1CCNCC1 [Ceritinib]
IC50 [1]: 53 nM
IC50 of resistant clones relative to parental sensitive cell line ([2]; four single resistant clones LDKR1-4 vs parental H3122): at least twenty times higher
Inhibition of ALK activity in resistant cell lines [4]: continued to be effective at inhibiting ALK activity in at least three of the four resistant cell lines
